Patent US20220324835A1 (Nurix Therapeutics, Inc., priority 2018, published 2022)

Legend:
[1] = molecular target: Cbl-b (Homo sapiens, UniProt Q13191); assay: Cbl-b inhibition assay (Cbl-b activity assay, FRET, Biological Example 1; 100 mM NaCl, 60 nM Src kinase); type: biochemical; conditions: upper bound stated in text lists; read-out: IC50 values in the Cbl-b inhibition assay of Biological Example 1
Method in brief: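 Here, the E2 UbcH5B, irreversibly linked to Bodipy-fluorescein ubiquitin, binds Cbl-b once Src kinase phosphorylates it; Cbl-b carries an N-terminal biotinylated Avi-tag captured by streptavidin-terbium. An absent FRET signal indicates inhibition.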

[2] = test system: T-cell; assay: IL-2 secretion from T-cells stimulated with anti-CD3 antibody alone (Biological Example 2); type: cell-based, human; conditions: T-cell, fold change over baseline, primary human total T-cells, read-out: IL-2 secretion Anti-CD3 stimulation; for fold induction at 1 µM: 1 μM Cbl-b inhibitor; for fold induction at 8 µM: 8 μM Cbl-b inhibitor
[3] = molecular target: Cbl-b (residues 36-427) (Homo sapiens, UniProt Q13191); assay: Cbl-b binding assay (SPR, Biacore T200); conditions: 20° C., 1:1 binding model
Method in brief: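 Steps: capture protein on NeutrAvidin surface; inject compound dilutions (8 or 10 points from 100 or 50 μM) 50 s; allow 90-180 s dissociation; regenerate 20 s with 0.3 M NaCl. Runs at 20° C in HEPES pH 7.5/100 mM NaCl/2% DMSO; 1:1 fitting.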

Sequence of Cbl-b (residues 36-427) (Q13191 36-427): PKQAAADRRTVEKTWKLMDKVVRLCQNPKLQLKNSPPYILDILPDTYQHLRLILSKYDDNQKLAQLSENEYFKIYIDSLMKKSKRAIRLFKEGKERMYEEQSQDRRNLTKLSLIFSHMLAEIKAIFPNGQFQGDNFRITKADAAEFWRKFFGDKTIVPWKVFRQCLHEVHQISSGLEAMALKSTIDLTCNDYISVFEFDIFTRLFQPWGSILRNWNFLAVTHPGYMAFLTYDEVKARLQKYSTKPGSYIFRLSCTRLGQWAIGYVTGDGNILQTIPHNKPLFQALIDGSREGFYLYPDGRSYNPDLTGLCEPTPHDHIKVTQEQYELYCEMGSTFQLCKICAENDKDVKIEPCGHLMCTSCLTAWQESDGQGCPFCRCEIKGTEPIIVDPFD
Sequence of Cbl-b (Q13191 36-427): as above

Compound C[C@H](Sc1nncn1C)c1cccc(NC(=O)c2cc(C(C)(C)O)cc(C(F)(F)F)n2)c1 [Compound 85, 4-(1-hydroxy-1-methyl-ethyl)-N-[3-[(1S)-1-[(4-methyl-1,2,4-triazol-3-yl)sulfanyl]ethyl]phenyl]-6-(trifluoromethyl)pyridine-2-carboxamide] has an IC50 [1] of no more than 500 nM, a fold induction at 1 µM [2] of less than 0.05 and a fold induction at 8 µM [2] of less than 0.05. For the same compound, the Kd [3] was 301 to 1000 nM.
In the case of C[C@H](Sc1nncn1C)c1cccc(NC(=O)c2cncc(C(F)(F)F)n2)c1 [Compound 77, N-[3-[(1S)-1-[(4-methyl-1,2,4-triazol-3-yl)sulfanyl]ethyl]phenyl]-6-(trifluoromethyl)pyrazine-2-carboxamide], the IC50 [1] is reported as no more than 500 nM, the fold induction at 1 µM [2] is reported as less than 0.05 and the fold induction at 8 µM [2] is reported as less than 0.05. For the same compound, the Kd [3] was 1000 to 3000 nM.
C[C@H](Cc1nncn1C)c1cccc(NC(=O)c2cc(S(C)(=O)=O)cc(C3CC3)n2)c1 [Compound 198, 6-cyclopropyl-N-[3-[(1R)-1-methyl-2-(4-methyl-1,2,4-triazol-3-yl)ethyl]phenyl]-4-methylsulfonyl-pyridine-2-carboxamide] gave an IC50 [1] of no more than 500 nM, a fold induction at 1 µM [2] of 0.101 to 0.15 and a fold induction at 8 µM [2] greater than 0.201. It also gave a Kd [3] of 100 to 300 nM.
Cc1cc(C(=O)Nc2cccc([C@H](C)Sc3nncn3C)c2)nc2ccccc12 [Compound 30, (S)-4-Methyl-N-(3-(1-((4-methyl-4H-1,2,4-triazol-3-yl)thio)ethyl)phenyl)quinoline-2-carboxamide] showed an IC50 [1] of no more than 500 nM, a fold induction at 1 µM [2] of 0.051 to 0.1 and a fold induction at 8 µM [2] of 0.101 to 0.15. It also gave a Kd [3] of 1000 to 3000 nM.
In the case of C[C@H](Cc1nncn1C)c1cccc(NC(=O)c2cc(C(=O)N3CC[C@](C)(O)C3)ccn2)c1 [Compound 222, 4-((S)-3-hydroxy-3-methylpyrrolidine-1-carbonyl)-N-(3-((R)-1-(4-methyl-4H-1,2,4-triazol-3-yl)propan-2-yl)phenyl)picolinamide], the IC50 [1] is reported as no more than 1000 nM, the fold induction at 1 µM [2] is reported as less than 0.05 and the fold induction at 8 µM [2] is reported as less than 0.05. The Kd [3] was 1000 to 3000 nM.
C[C@H](Cc1nncn1C)c1cccc(NC(=O)c2nc(C(F)(F)F)c[nH]2)c1 [Compound 326, (R)-N-(3-(1-(4-methyl-4H-1,2,4-triazol-3-yl)propan-2-yl)phenyl)-4-(trifluoromethyl)-1H-imidazole-2-carboxamide] was tested, and the IC50 [1] was no more than 300 nM, the fold induction at 1 µM [2] was 0.051 to 0.1 and the fold induction at 8 µM [2] was greater than 0.201. The Kd [3] was 100 to 300 nM.
With C[C@H](Sc1nncn1C)c1ccnc(N2Cc3c(cccc3C(F)(F)F)C2=O)c1 [Compound 172a, (S)-(4-(1-((4-methyl-4H-1,2,4-triazol-3-yl)thio)ethyl)pyridin-2-yl)-4-(trifluoromethyl)isoindolin-1-one] the IC50 [1] was no more than 1000 nM, the fold induction at 1 µM [2] was less than 0.05 and the fold induction at 8 µM [2] was less than 0.05. The Kd [3] was 1000 to 3000 nM.
C[C@H](Sc1nncn1C)c1cccc(N2Cc3c(cccc3C(F)(F)F)C2=O)c1 [Compound 166a, (S)-2-(3-(1-((4-methyl-4H-1,2,4-triazol-3-yl)thio)ethyl)phenyl)-4-(trifluoromethyl)isoindolin-1-one] showed an IC50 [1] of no more than 500 nM, a fold induction at 1 µM [2] of less than 0.05 and a fold induction at 8 µM [2] of less than 0.05. For the same compound, the Kd [3] was 301 to 1000 nM.
Cc1[nH]cnc1CC(C)c1cccc(N2Cc3c(cccc3C(F)(F)F)C2=O)c1 (stereo not shown) [Compound 272, 2-[3-[1-(5-methyl-1H-imidazol-4-yl)propan-2-yl]phenyl]-4-(trifluoromethyl)isoindolin-1-one] was tested, and the IC50 [1] was no more than 500 nM, the fold induction at 1 µM [2] was 0.101 to 0.15 and the fold induction at 8 µM [2] was 0.101 to 0.15. It also gave a Kd [3] of 3000 to 10000 nM.
Work on Cc1ccc(C(=O)Nc2cccc(C(C)C(F)(F)c3nncn3C)c2)nc1C1CC1 (stereo not shown) [Compound 286, 6-cyclopropyl-N-(3-(1,1-difluoro-1-(4-methyl-4H-1,2,4-triazol-3-yl)propan-2-yl)phenyl)-5-methylpicolinamide] yielded an IC50 [1] of no more than 500 nM, a fold induction at 1 µM [2] of 0.051 to 0.1 and a fold induction at 8 µM [2] of 0.101 to 0.15. The Kd [3] was 301 to 1000 nM.
